Non-standard residues stand in square brackets, D forms with d. Residues, ends and D or L forms follow the SMILES beside them. ξ: configuration not given here. *: point of attachment. Dansyl = CN(C)c1cccc2c(S(=O)(=O)*)cccc12; ξP = O=C(O)C1CCCN1; Sar = CNCC(=O)O
Molecular target: T1, thrombin (Bos taurus, UniProt P00735)
T1 construct: mature alpha-thrombin (light plus heavy chain) cut from prothrombin
Test: Fibrinogen coagulation time (thrombin-induced clotting of fibrinogen)
Format: biochemical
Settings: bovine fibrinogen, borate saline buffer pH 7.4, thrombin 0.1 ml of 5 units/ml, 25°C; control coagulation time 50-55 seconds; read-out: Concentration required to prolong the coagulation time by a factor of 2
Protocol: The antithrombotic activities of the N^2 -dansyl-L-arginine derivatives of this invention were compared with those of a known antithrombotic agent, (N^2 -(p-tolylsulfonyl)-L-arginine methyl ester). by determining the fibrinogen coagulation time. The measurement of the fibrinogen coagulation time was conducted as follows:
Immediately after mixing, the reaction mixture was transferred from the ice bath to a bath thermostated at 25°C. Coagulation times were taken as the period between the time of transference to the 25°C bath and the time of the first appearance of fibrin threads.
The term "concentration required to prolong the coagulation time by a factor of two" is the concentration of an active ingredient required to prolong the normal coagulation time 50-55 seconds to 100-110 seconds.

| Structure (SMILES) | IC (2-fold clotting time) [µM] |
| --- | --- |
| CCCCN(CC)C(=O)[C@H](CCCNC(=N)N)NS(=O)(=O)c1cccc2c(N(C)C)cccc12 [Sample 48] | 50 |
| CCOC(=O)CCN(C)C(=O)[C@H](CCCNC(=N)N)NS(=O)(=O)c1cccc2c(N(C)C)cccc12 [Sample 51] | 15 |
| CN(Cc1ccccc1)C(=O)[C@H](CCCNC(=N)N)NS(=O)(=O)c1cccc2c(N(C)C)cccc12 [Sample 52, N^2 -dansyl-N-methyl-N-benzyl-L-argininamide] | 7 |
| CN(C)c1cccc2c(S(=O)(=O)N[C@@H](CCCNC(=N)N)C(=O)N3CCCC3)cccc12 [Sample 53, 1-(N^2-dansyl-L-arginyl)pyrrolidine diacetate] | 3.3 |
| CCOC(=O)C1CCCN1C(=O)[C@H](CCCNC(=N)N)NS(=O)(=O)c1cccc2c(N(C)C)cccc12 (stereo partly shown) [Sample 54] (Dansyl-Arg-[ξP]-OEt) | 780 |
| CC1CCCCN1C(=O)[C@H](CCCNC(=N)N)NS(=O)(=O)c1cccc2c(N(C)C)cccc12 (stereo partly drawn) [Sample 56, 2-methyl-1-(N^2-dansyl-L-arginyl)piperidine] | 1.3 |
| CC1CCCN(C(=O)[C@H](CCCNC(=N)N)NS(=O)(=O)c2cccc3c(N(C)C)cccc23)C1 (stereo partly drawn) [Sample 57, 3-methyl-1-(N^2-dansyl-L-arginyl)piperidine] | 6.5 |
| CC1CCN(C(=O)[C@H](CCCNC(=N)N)NS(=O)(=O)c2cccc3c(N(C)C)cccc23)CC1 [Sample 58, 4-methyl-1-(N^2-dansyl-L-arginyl)piperidine diacetate] | 0.3 |
| CCC1CCN(C(=O)[C@H](CCCNC(=N)N)NS(=O)(=O)c2cccc3c(N(C)C)cccc23)CC1 [Sample 59, 4-ethyl-1-(N^2-dansyl-L-arginyl) piperidine] | 0.1 |
| CC(C)C1CCN(C(=O)[C@H](CCCNC(=N)N)NS(=O)(=O)c2cccc3c(N(C)C)cccc23)CC1 [Sample 61, 4-(isopropyl)-1-(N^2-dansyl-L-arginyl)piperidine] | 1 |
| CN(C)c1cccc2c(S(=O)(=O)N[C@@H](CCCNC(=N)N)C(=O)N3CCC(C(N)=O)CC3)cccc12 [Sample 63] | 100 |
| CN(C)c1cccc2c(S(=O)(=O)N[C@@H](CCCNC(=N)N)C(=O)N3CCCCCC3)cccc12 [Sample 64, N^2 -dansyl-N,N-hexamethylene-L-argininamide] | 0.9 |
| CN(C)c1cccc2c(S(=O)(=O)N[C@@H](CCCNC(=N)N)C(=O)N3CCCCCCC3)cccc12 [Sample 65, N^2 -dansyl-N,N-heptamethylene-L-argininamide] | 1 |

The next lines start with the values.

| IC (2-fold clotting time) [µM] | Structure (SMILES) |
| --- | --- |
| 2 | CCCCN(C)C(=O)[C@H](CCCNC(=N)N)NS(=O)(=O)c1cccc2c(N(C)C)cccc12 [Sample 47, N^2 -dansyl-N-(n-butyl)-N-methyl-L-argininamide diacetate] |
| 59 | CCOC(=O)CN(C)C(=O)[C@H](CCCNC(=N)N)NS(=O)(=O)c1cccc2c(N(C)C)cccc12 [Sample 49] (Dansyl-Arg-[Sar]-OEt) |
| 2.5 | COC(=O)CCN(C)C(=O)[C@H](CCCNC(=N)N)NS(=O)(=O)c1cccc2c(N(C)C)cccc12 [Sample 50, N^2-dansyl-N-methyl-N-(2-methoxycarbonylethyl)-L-argininamide] |
| 0.9 | CN(C)c1cccc2c(S(=O)(=O)N[C@@H](CCCNC(=N)N)C(=O)N3CCCCC3)cccc12 [Sample 55, 1-(N^2-dansyl-L-arginyl)piperidine diacetate] |
| 1 | CCCC1CCN(C(=O)[C@H](CCCNC(=N)N)NS(=O)(=O)c2cccc3c(N(C)C)cccc23)CC1 [Sample 60, 4-(n-propyl)-1-(N^2-dansyl-L-arginyl)piperidine] |
| 2.8 | COC(=O)C1CCN(C(=O)[C@H](CCCNC(=N)N)NS(=O)(=O)c2cccc3c(N(C)C)cccc23)CC1 [Sample 62, 4-methoxycarbonyl-1-(N^2-dansyl-L-arginyl)piperidine] |
